{"source": "patent US9844595B2", "about": "“Composition comprising a complex of (+)-catechin and amino acid for the treatment and prevention of cancer” (VALORE, priority 2013, dated 2017)", "key": {"[1]": {"experiment": "Bioavailability after oral administration in human beings (free monomeric (+)-catechin in plasma, LC-MS/MS)", "description": "(§1) With regard to taking the blood samples from the rats and from the human beings, the blood was collected in tubes internally coated with EDTA and was then centrifuged at 3000 rpm (revolutions per minute) at ambient temperature for 45 min, and then for 15 min at a temperature of 4° C. The plasma was then collected and stored at −70° C. before analysis.\n(§2) The analytical technique (LC-MS/MS for Liquid Chromatography coupled to tandem Mass Spectrometry) for measuring the active substance in the blood was based on the method described by Mata-Bilbao et al., published in 2007 in the Journal of Agricultural and Food Chemistry, volume 55, page 8857.\n(§3) The free (+)-catechin was extracted from the plasma with a solution of phosphoric acid, EDTA and ascorbic acid and was then purified by SPE (solid phase extraction); in particular, it is an Oasis™ HLB extraction which is analyzed by LC-MS/MS. The quantification was carried out according to a standard calibration procedure with (+/−)-catechin-2,3,4-^13C3 as internal standard (SI).\nThis complex salt is administered to a group A of 5 healthy volunteers.\nThis ct parameter makes it possible to calculate, from the data of table 1, the bioavailability of the (+)-catechin expressed in ng h/ml."}, "[2]": {"conditions": "for Δct: vs CP", "description": "The experimental results described below were obtained on the basis of a study carried out in healthy human beings and in healthy Wistar rats weighing approximately 250 grams.\nAn acclimation period was observed before beginning the experiments.\nThe rats received an administration per os of a volume of 5 ml of a solution of active product.\nas §1, §2, §3\nThe procedure is identical with regard to the extraction and the quantification of free quercetin or ECGC in the blood.\nWith regard to the extraction and quantification of the total (+)-catechin, the procedure is the same as that applied to the free (+)-catechin, with the exception of the fact that an additional step prior to the purification by SPE is carried out.\n(§4) Each of the mixtures is then solubilized in water.\nEach of the mixtures is solubilized in water."}, "[3]": {"type": "in vivo, Wistar rats", "conditions": "in a period of one hour following the injection", "source_text": "as §4"}, "Solubility in water": {"experiment": "Solubility in water", "type": "physicochemical"}, "collagen of rat skin": {"tested_on": "collagen of rat skin", "experiment": "Total incorporation and incorporation into collagen of 3H-proline in the skin", "type": "in vivo, Wistar rats", "conditions": "100 mg/kg by gavage, vs control subgroup", "description": "To do this, a study was carried out in vivo on a batch of 24 female Wistar rats weighing from 95 to 115 g, divided into two groups C and D, each of 12 rats. For each group, the radioactive 3H-hydroxyproline, the specific activity of which is 13.6 Ci/10-3 mol, was administered to all the animals by intraperitoneal injection of 3H-proline at a dose, relative to the weight of the individuals, of 1 mCi/kg, which represents an activity in terms of radioactive 3H-proline of 100 μCi/individual.\n6 rats of each group received a treatment based on monomeric (+)-catechin by gavage in a proportion of 100 mg/kg for 5 days before sacrifice. […] The group C received monomeric (+)-catechin hydrochlorolysinate, while the group D received monomeric (+)-catechin ascorbolysinate.\nIn table 8, the level of incorporation is measured by the number of disintegrations of the radioactive 3H-hydroxyproline per minute (dpm) per mg of dry weight. The higher this number, the higher the concentration of 3H-hydroxyproline.\nIn this comparative example, a group E of 12 Wistar rats weighing from 95 to 115 g, in which radioactive 3H-hydroxyproline, the specific activity of which is 13.6 Ci/10-3 mol, was administered to all the individuals by intraperitoneal injection of 3H-proline at a dose, relative to the weight of the individuals, of 1 mCi/kg, which represents an activity in terms of radioactive 3H-proline of 100 μCi/individual.\n6 rats of each group received a treatment based on pure monomeric (+)-catechin by gavage in a proportion of 100 mg/kg for 5 days before sacrifice."}, "[4]": {"conditions": "free (+)-catechin, 1 g pure monomeric (+)-catechin, group B"}, "[5]": {"conditions": "free monomeric (+)-catechin in plasma"}, "[6]": {"conditions": "free (+)-catechin, rats, oral, dose equivalent to 25 mg/kg (+)-catechin, 3 Wistar rats"}, "[7]": {"conditions": "free (+)-catechin, rats, per os, dose equivalent to 25 mg/kg (+)-catechin, 5 Wistar rats, pulverulent mixture solubilized in water"}, "[8]": {"conditions": "total (+)-catechin (free and conjugated), rats, oral, dose equivalent to 25 mg/kg, 3 Wistar rats"}}, "note": "Like-named read-outs stand apart in the source and are kept apart here.", "data": [{"smiles": "Oc1cc(O)c2c(c1)O[C@H](c1ccc(O)c(O)c1)[C@@H](O)C2", "note": "[CP, (+)-catechin]", "values": [{"measurement": "c (max) related back to 0.92 g of pure (+)-catechin", "setting": "[1]", "result": 258, "unit": "ng/mL"}, {"measurement": "ct related back to 0.92 g of pure (+)-catechin", "setting": "[1]; equivalent amount of 0.92 g pure (+)-catechin", "result": "832 ± 150", "unit": "ng·h/mL"}, {"measurement": "ct related back to 0.920 g of pure (+)-catechin", "setting": "[1]; equivalent amount of 0.920 g pure (+)-catechin", "result": "49 920 ng min/ml"}, {"measurement": "T (max)", "setting": "[1]; [4]", "result": 1.20, "unit": "h"}, {"measurement": "c (max)", "setting": "[1]; [4]", "result": 280, "unit": "ng/mL"}, {"measurement": "ct (total concentration, area under the curve over six hours)", "setting": "[1]; free (+)-catechin, 1 g pure monomeric (+)-catechin, group B, listed as pure (+)-catechin", "result": "904 ± 163", "unit": "ng·h/mL"}, {"measurement": "T (max)", "setting": "[1]; [5]", "result": 1.33, "unit": "h"}, {"measurement": "c (max) for 1 g of monomeric (+)-catechin ingested as it is", "setting": "[1]; [5]", "result": 280, "unit": "ng"}, {"measurement": "T (max)", "setting": "[2]; [6]", "result": 30, "unit": "min"}, {"measurement": "Δct", "setting": "[2]; [6]", "result": 0, "unit": "%"}, {"measurement": "Δct (difference of ct to CP, related back to CP)", "setting": "[2]; free (+)-catechin, rats, oral, dose equivalent to 100 mg/kg (+)-catechin", "result": 0, "unit": "%"}, {"measurement": "T (max)", "setting": "[2]; free (+)-catechin, rats, oral, dose equivalent to 100 mg/kg (+)-catechin, 5 Wistar rats", "result": 60, "unit": "min"}, {"measurement": "T (max)", "setting": "[2]; [7]", "result": 60, "unit": "min"}, {"measurement": "c (max)", "setting": "[2]; [7]", "result": 580, "unit": "ng/mL"}, {"measurement": "ct", "setting": "[2]; [7]", "result": "91 935 ng min/ml"}, {"measurement": "Δct", "setting": "[2]; free (+)-catechin, rats, per os, dose equivalent to 25 mg/kg, 5 Wistar rats", "result": 0, "unit": "%"}, {"measurement": "decrease of the peak content of free monomeric (+)-catechin in the blood", "setting": "[2]; oral absorption, after two hours", "result": 50, "unit": "%"}, {"measurement": "T (max)", "setting": "[2]; [8]", "result": 30, "unit": "min"}, {"measurement": "c (max)", "setting": "[2]; [8]", "result": 2200, "unit": "ng/mL"}, {"measurement": "Δct", "setting": "[2]; total (+)-catechin, rats, oral, dose equivalent to 25 mg/kg, 3 Wistar rats", "result": 0, "unit": "%"}, {"measurement": "content of free monomeric (+)-catechin eliminated from the blood", "setting": "[3]", "result": "~90", "unit": "%"}, {"measurement": "solubility in water compared with the complexed form", "setting": "Solubility in water", "result": 400, "unit": "times lower"}, {"measurement": "increase in the level of incorporation", "setting": "collagen of rat skin", "result": "+16%"}]}]}
